This is an account of results in ChEMBL document CHEMBL1150323, “Peptomeric analogues of trypsin inhibitor SFTI-1 isolated from sunflower seeds” (Bioorg Med Chem, 2008).

For series [1], the target named is T1, Serine protease 1 (Bos taurus) (UniProt P00760).
T1 sequence (whole entry): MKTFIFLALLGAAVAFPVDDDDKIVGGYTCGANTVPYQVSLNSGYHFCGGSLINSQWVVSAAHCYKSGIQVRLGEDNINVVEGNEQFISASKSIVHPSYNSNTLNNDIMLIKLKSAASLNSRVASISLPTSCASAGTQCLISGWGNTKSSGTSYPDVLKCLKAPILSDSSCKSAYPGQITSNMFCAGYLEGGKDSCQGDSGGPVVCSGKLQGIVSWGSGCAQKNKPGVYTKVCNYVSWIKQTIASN
As to the kind of experiment: Inhibition of bovine beta trypsin assessed as residual activity by spectrophotometry.

Series [2] in a line: Proteolytic stability assessed as half life of trypsin-mediated hydrolysis by RP-HPLC. In kind it is ADME.
Series [3] is filed under the species Bos taurus. As to the kind of experiment: Inhibition of bovine alpha chymotrypsin assessed as residual activity by spectrophotometry.
A short description of series [4]: Proteolytic stability assessed as trypsin-mediated hydrolysis at pH 8.3 after 24 hrs by RP-HPLC. The class given is ADME. The following applies: read-out: Activity.
The species named for series [5] is Bos taurus. As to the kind of experiment: Inhibition of bovine alpha chymotrypsin assessed as residual activity after 40 mins by spectrophotometry.
The target of series [6] is T1, Serine protease 1 (Bos taurus). As to the kind of experiment: Inhibition of bovine beta trypsin assessed as residual activity after 40 mins by spectrophotometry.
Series [7] has the same target. As to the kind of experiment: Inhibition of bovine beta trypsin assessed as residual activity after 60 mins by spectrophotometry.
Series [8] is filed under the species Bos taurus. As to the kind of experiment: Inhibition of bovine alpha chymotrypsin assessed as residual activity after 3 hrs by spectrophotometry.

Active and inactive are the calls of the source. Positions of bridges follow the written chain, without caps; N, C: chain ends. Non-standard residues stand in square brackets, D forms with d. Residues, ends and D or L forms follow the SMILES beside them. Nphe = O=C(O)CNCc1ccccc1; Abu = CC[C@H](N)C(=O)O; Nlys = NCCCCNCC(=O)O

One may read the half-life as the time needed for the level to fall by half in the phase considered. For `CC[C@H](C)[C@@H]1NC(=O)[C@@H]2CCCN2C(=O)[C@@H]2CCCN2C(=O)[C@H]([C@@H](C)CC)NC(=O)[C@H](CO)NC(=O)[C@H](CCCCN)NC(=O)[C@H]([C@@H](C)O)NC(=O)[C@@H](NC(=O)[C@H](CCCNC(=N)N)NC(=O)CN)CSSC[C@@H](C(=O)N[C@@H](Cc2ccccc2)C(=O)N2CCC[C@H]2C(=O)N[C@@H](CC(=O)O)C(=O)O)NC1=O`, the Ka was 9.9 ×10⁹ /M in series [1] and 4.9 ×10⁶ /M in the series listed under Bos taurus [3]. Further, in series [2], the half-life was found to be 2.75 h.
As for `CC[C@H](NC(=O)[C@H](CCCNC(=N)N)NC(=O)CN)C(=O)N[C@H](C(=O)N(CC(=O)N[C@@H](CO)C(=O)N[C@H](C(=O)N1CCC[C@H]1C(=O)N1CCC[C@H]1C(=O)N[C@H](C(=O)N[C@@H](CC)C(=O)N[C@@H](Cc1ccccc1)C(=O)N1CCC[C@H]1C(=O)N[C@@H](CC(=O)O)C(=O)O)[C@@H](C)CC)[C@@H](C)CC)Cc1ccccc1)[C@@H](C)O`, in series [4], the metabolised at 24 h stood at 7%.
Take `CC[C@@H]1NC(=O)[C@H](CCCNC(=N)N)NC(=O)CNC(=O)[C@H](CC(=O)O)NC(=O)[C@@H]2CCCN2C(=O)[C@H](Cc2ccccc2)NC(=O)[C@H](CC)NC(=O)[C@H]([C@@H](C)CC)NC(=O)[C@@H]2CCCN2C(=O)[C@@H]2CCCN2C(=O)[C@H]([C@@H](C)CC)NC(=O)[C@H](CO)NC(=O)CN(Cc2ccccc2)C(=O)[C@H]([C@H](C)O)NC1=O`: the Ka in the series listed under Bos taurus [5] was 6.2 ×10⁷ /M.
As for `CC[C@H](C)[C@@H]1NC(=O)[C@@H]2CCCN2C(=O)[C@@H]2CCCN2C(=O)[C@H]([C@@H](C)CC)NC(=O)[C@H](CO)NC(=O)[C@H](Cc2ccccc2)NC(=O)[C@H]([C@@H](C)O)NC(=O)[C@@H](NC(=O)[C@H](CCCNC(=N)N)NC(=O)CN)CSSC[C@@H](C(=O)N[C@@H](Cc2ccccc2)C(=O)N2CCC[C@H]2C(=O)N[C@@H](CC(=O)O)C(=O)O)NC1=O` (H-GRCTFSIPPICFPD-OH; disulfide 3-11), in series [2], the half-life was 3.03 h. In the series filed under Bos taurus [3], the Ka turned out to be 2 ×10⁹ /M.
Turning to `CC[C@H](C)[C@@H]1NC(=O)[C@@H]2CCCN2C(=O)[C@@H]2CCCN2C(=O)[C@H]([C@@H](C)CC)NC(=O)[C@H](CO)NC(=O)[C@H](CCCCN)NC(=O)[C@H]([C@@H](C)O)NC(=O)[C@@H]2CSSC[C@H](NC1=O)C(=O)N[C@@H](Cc1ccccc1)C(=O)N1CCC[C@H]1C(=O)N[C@@H](CC(=O)O)C(=O)NCC(=O)N[C@@H](CCCNC(=N)N)C(=O)N2`, the half-life in series [2] stood at 7.25 h. Moreover, in the series listed under Bos taurus [3], the Ka was determined as 4.9 ×10⁶ /M.
Take `CC[C@H](NC(=O)[C@H](CCCNC(=N)N)NC(=O)CN)C(=O)N[C@H](C(=O)N[C@@H](Cc1ccccc1)C(=O)N[C@@H](CO)C(=O)N[C@H](C(=O)N1CCC[C@H]1C(=O)N1CCC[C@H]1C(=O)N[C@H](C(=O)N[C@@H](CC)C(=O)N[C@@H](Cc1ccccc1)C(=O)N1CCC[C@H]1C(=O)N[C@@H](CC(=O)O)C(=O)O)[C@@H](C)CC)[C@@H](C)CC)[C@H](C)O`: the result in the series listed under Bos taurus [3] was inactive.
Regarding `CC[C@H](NC(=O)CNCCCCN)C(=O)N[C@H](C(=O)N(CCCCN)CC(=O)N[C@@H](CO)C(=O)N[C@H](C(=O)N1CCC[C@H]1C(=O)N1CCC[C@H]1C(=O)N[C@H](C(=O)N[C@@H](CC)C(=O)N[C@@H](Cc1ccccc1)C(=O)N1CCC[C@@H]1C(=O)N[C@@H](CC(=O)O)C(=O)O)[C@@H](C)CC)[C@@H](C)CC)[C@H](C)O`, the outcome in series [1] was inactive.
With `CC[C@H](NC(=O)[C@H](CCCNC(=N)N)NC(=O)CN)C(=O)N[C@H](C(=O)N(CC(=O)N[C@@H](CO)C(=O)N[C@H](C(=O)N1CCC[C@H]1C(=O)N1CCC[C@H]1C(=O)N[C@H](C(=O)N[C@@H](CC)C(=O)N[C@@H](Cc1ccccc1)C(=O)N1CCC[C@H]1C(=O)N[C@@H](CC(=O)O)C(=O)O)[C@@H](C)CC)[C@@H](C)CC)Cc1ccccc1)[C@H](C)O`, the Ka in the series filed under Bos taurus [5] was 7 ×10⁷ /M.
Turning to `CC[C@H](C)[C@@H]1NC(=O)[C@@H]2CCCN2C(=O)[C@@H]2CCCN2C(=O)[C@H]([C@@H](C)CC)NC(=O)[C@H](CO)NC(=O)CN(CCCCN)C(=O)[C@H]([C@H](C)O)NC(=O)[C@@H](NC(=O)[C@@H](N)CCCCN)CSSC[C@@H](C(=O)N[C@@H](Cc2ccccc2)C(=O)N2CCC[C@H]2C(=O)N[C@@H](CC(=O)O)C(=O)O)NC1=O`, the Ka in series [6] was determined as 8 ×10⁷ /M.
As for `CC[C@@H]1NC(=O)[C@H](CCCNC(=N)N)NC(=O)CNC(=O)[C@H](CC(=O)O)NC(=O)[C@@H]2CCCN2C(=O)[C@H](Cc2ccccc2)NC(=O)[C@H](CC)NC(=O)[C@H]([C@@H](C)CC)NC(=O)[C@@H]2CCCN2C(=O)[C@@H]2CCCN2C(=O)[C@H]([C@@H](C)CC)NC(=O)[C@H](CO)NC(=O)CN(Cc2ccccc2)C(=O)[C@H]([C@@H](C)O)NC1=O`, the half-life in series [2] is 5.87 h.
Same read-out and setting: the value for `CC[C@H](NC(=O)[C@H](CCCNC(=N)N)NC(=O)CN)C(=O)N[C@H](C(=O)N(CCCCN)CC(=O)N[C@@H](CO)C(=O)N[C@H](C(=O)N1CCC[C@H]1C(=O)N1CCC[C@H]1C(=O)N[C@H](C(=O)N[C@@H](CC)C(=O)N[C@@H](Cc1ccccc1)C(=O)N1CCC[C@H]1C(=O)N[C@@H](CC(=O)O)C(=O)O)[C@@H](C)CC)[C@@H](C)CC)[C@@H](C)O` (H-GR[Abu]T[Nlys]SIPPI[Abu]FPD-OH) was 1.1 h.
With `CC[C@H](C)[C@@H]1NC(=O)[C@@H]2CCCN2C(=O)[C@@H]2CCCN2C(=O)[C@H]([C@@H](C)CC)NC(=O)[C@H](CO)NC(=O)CN(CCCCN)C(=O)[C@H]([C@@H](C)O)NC(=O)[C@@H](NC(=O)[C@H](CCCNC(=N)N)NC(=O)CN)CSSC[C@@H](C(=O)N[C@@H](Cc2ccccc2)C(=O)N2CCC[C@H]2C(=O)N[C@@H](CC(=O)O)C(=O)O)NC1=O`, the Ka in series [1] was 1 ×10⁸ /M.
For the compound `CC[C@@H]1NC(=O)[C@H](CCCNC(=N)N)NC(=O)CNC(=O)[C@H](CC(=O)O)NC(=O)[C@@H]2CCCN2C(=O)[C@H](Cc2ccccc2)NC(=O)[C@H](CC)NC(=O)[C@H]([C@@H](C)CC)NC(=O)[C@@H]2CCCN2C(=O)[C@@H]2CCCN2C(=O)[C@H]([C@@H](C)CC)NC(=O)[C@H](CO)NC(=O)CN(CCCCN)C(=O)[C@H]([C@H](C)O)NC1=O`, in series [7], the Ka worked out at 1.9 ×10⁸ /M.
In the case of `CC[C@H](C)[C@@H]1NC(=O)[C@@H]2CCCN2C(=O)[C@@H]2CCCN2C(=O)[C@H]([C@@H](C)CC)NC(=O)[C@H](CO)NC(=O)CN(Cc2ccccc2)C(=O)[C@H]([C@@H](C)O)NC(=O)[C@@H](NC(=O)[C@H](CCCNC(=N)N)NC(=O)CN)CSSC[C@@H](C(=O)N[C@@H](Cc2ccccc2)C(=O)N2CCC[C@H]2C(=O)N[C@@H](CC(=O)O)C(=O)O)NC1=O` (H-GRCT[Nphe]SIPPICFPD-OH; disulfide 3-11), in the series filed under Bos taurus [3], the Ka came out at 3.8 ×10⁸ /M.
On to `CC[C@@H]1NC(=O)[C@H](CCCNC(=N)N)NC(=O)CNC(=O)[C@H](CC(=O)O)NC(=O)[C@@H]2CCCN2C(=O)[C@H](Cc2ccccc2)NC(=O)[C@H](CC)NC(=O)[C@H]([C@@H](C)CC)NC(=O)[C@@H]2CCCN2C(=O)[C@@H]2CCCN2C(=O)[C@H]([C@@H](C)CC)NC(=O)[C@H](CO)NC(=O)[C@H](Cc2ccccc2)NC(=O)[C@H]([C@@H](C)O)NC1=O` (cyclo([Abu]FPDGR[Abu]TFSIPPI)), for which the Ka in the series filed under Bos taurus [8] came to 1.1 ×10¹⁰ /M. The half-life in series [2] was 5.9 h. In addition, in series [4], the metabolised at 24 h was 30%.
On to `CC[C@H](NC(=O)[C@@H](NC(=O)[C@@H]1CCCN1C(=O)[C@@H]1CCCN1C(=O)[C@@H](NC(=O)[C@H](CO)NC(=O)CN(CCCCN)C(=O)[C@@H](NC(=O)[C@H](CC)NC(=O)[C@@H](N)CCCCN)[C@H](C)O)[C@@H](C)CC)[C@@H](C)CC)C(=O)N[C@@H](Cc1ccccc1)C(=O)N1CCC[C@H]1C(=O)N[C@@H](CC(=O)O)C(=O)O`, for which the result in series [1] was inactive.
As to `CC[C@@H]1NC(=O)[C@H](CCCNC(=N)N)NC(=O)CNC(=O)[C@H](CC(=O)O)NC(=O)[C@@H]2CCCN2C(=O)[C@H](Cc2ccccc2)NC(=O)[C@H](CC)NC(=O)[C@H]([C@@H](C)CC)NC(=O)[C@@H]2CCCN2C(=O)[C@@H]2CCCN2C(=O)[C@H]([C@@H](C)CC)NC(=O)[C@H](CO)NC(=O)CN(CCCCN)C(=O)[C@H]([C@@H](C)O)NC1=O`, the half-life in series [2] came to 1.37 h.
On the same count and under the same terms, in the case of `CC[C@H](NC(=O)[C@H](CCCNC(=N)N)NC(=O)CN)C(=O)N[C@H](C(=O)N[C@@H](Cc1ccccc1)C(=O)N[C@@H](CO)C(=O)N[C@H](C(=O)N1CCC[C@H]1C(=O)N1CCC[C@H]1C(=O)N[C@H](C(=O)N[C@@H](CC)C(=O)N[C@@H](Cc1ccccc1)C(=O)N1CCC[C@H]1C(=O)N[C@@H](CC(=O)O)C(=O)O)[C@@H](C)CC)[C@@H](C)CC)[C@@H](C)O` it was 1.25 h.
